According to EP0732331A1, “Novel benzothiophene compounds and methods for inhibiting lipoxygenase and leukotrienes” (ELI LILLY AND COMPANY, priority 1995, dated 1996):
Like-named read-outs stand apart in the source and are kept apart here.

Columns and labels:
[1] = tested on: production of thromboxane B2 (TxB2); experiment: Inhibition of Eicosanoid Production by Plasma-depleted Blood: TxB2; type: cell-based; details: Homo sapiens, read-out: TxB2
Experimental: (§1) Compounds are evaluated for their ability to inhibit production of leukotriene B4 (LTB4) and thromboxane B2 (TxB2) upon stimulation of human plasma-depleted blood with formyl-methionyl-leucyl-phenylalanine (FMLP) and thrombin. LTB4 is produced by neutrophils and TxB2 by platelets stimulated at their respective receptors with FMLP and thrombin. The assay is carried out in 1 ml deep well polypropylene 96-well plates (Beckman). For the test, ten ml of blood is collected in EDTA at a final concentration of 1.5 mg/ml. Then, 40 ml glucose phosphate buffer containing 0.1% gelatin is added and the suspension centrifuged at 900 g for 10 minutes at room temperature. The supernatant is discarded and the cells washed once with 50 ml buffer before resuspending them in 50 ml Krebs-Ringers-Henseleit Buffer containing 0.1% gelatin, 1 mM CaCl2, 1.1 mM MgCl2 (KRH buffer). Working solutions of test compounds are made by dissolving the material in DMSO at 10 mM and diluting with appropriate amounts of KRH buffer. An agonist solution is made containing 1 µM FMLP (sigma) and 10 units/ml of thrombin in KRH buffer (Enzyme Research Labs). The blood cell suspension is first warmed to 37° C for 5 minutes and then mixed with cytochalasin B (sigma) at a final concentration of 2 µg/ml. In each well, 200 µl of the compound solution is incubated with 250 µl of the blood cell, cytochalasin B suspension at 37° C for 10 min. Stimulation of eicosanoid production is begun by adding 50 µl of the agonist solution. The mixture is then incubated for 2 min. before stopping the reaction by adding 50 µl of a solution containing 275 mM EDTA, 110 µM indomethacin (sigma) and 110 µM of the 5-lipoxygenase inhibitor, N-hydroxy-N-[3-[2-(2-propynylthio)phenyl]-2-propenyl]urea. Subsequently, the plate is centrifuged and an aliquot of the supernatant fluid removed for analysis of the eicosanoid content. The amount of LTB4 and TxB2 produced is determined by the use of a competitive enzyme immunoassay using commercial reagents from Cayman Chemical.

MCII cells = experiment: MCII Mast Cell Toxicity Assay (XTT); type: cell-based; details: Mus musculus, read-out: Toxicity
Source text: This toxicity assay is run in parallel with the MCII mast cell LTC4 assay and serves as an indicator of compound effects on the viability and metabolic activity of the MCII cells. This "toxicity" assay is based on the ability of dehydrogenase enzymes present in viable metabolically active cells to bioreduce the tetrazolium salt XTT yielding a colored, water soluble formazan product. (see, Roehm et al.) "An improved colorimetric assay for cell proliferation and viability utilzing the tetrazolium salt XTT. J. Immunol. Methods 142:257-65 (1991).
A duplicate polystyrene 96-well tissue culture plate (Costar) is set up with sensitized MCII cells, EM95 ascites, media and dilutions of the test compound as described above. The complete media is supplemented with concanavalin A induced culture supernatants from the mouse helper T cell clone D10.G4, as a source of mast cell growth factors.
Wells of the toxicity assay plate are pulsed with 25 µl XTT (Sigma) plus phenazine methosulfate (Aldrich) giving a final concentration of 0.2 mg/ml XTT and 25 µM phenazine methosulfate. The plates are incubated at 37° C in 10% CO2 for 4-12 hours and then production of the XTT formazan product determined by measuring the optical density of the wells at a wavelength of 450 nm. The positive control on each plate is stimulated MCII cells with dimethyl sulfoxide vehicle alone and the negative control is the same reaction mixture without cells. The background negative control value is subtracted from experimental and positive control values and the data are reported as percent of positive control.

[2] = tested on: production of LTC4 by the cytokine dependent mast cell line MCII; experiment: MCII Mast Cell LTC4 Assay; type: cell-based, mouse; details: read-out: LTC4
Source text: This assay measures the production of LTC4 by the cytokine dependent mast cell line MCII, stimulated by cross linking the high affinity Fc receptor for IgE (FcεR1).
The bone marrow derived, cytokine dependent mouse mast cell line MCII (Lilly Research Laboratories) is maintained in log phase growth in complete Dulbecco's' Modified Eagles Medium (GIBCO BRL) supplemented with fetal bovine serum (Hyclone), gentamicin, penicillin and streptomycin (GIBCO BRL) and using concanavalin A (ICN ImmunoBiologicals) induced culture supernatants from the mouse helper T cell clone D10.G4 (ATCC TIB 224) as a source of mast cell growth factors. The MCII cells are passively sensitized with mouse monoclonal IgE by incubation with an appropriate dilution of IgEL b4 (ATCC TIB 141) antibody ascites at 37° C for 60 minutes and then washed with Hank's Balanced Salt Solution (GIBCO BRL) to remove unbound IgE. The sensitized cells are then preincubated with drug in complete media for 10 minutes at 37° C in 96 well polypropylene plates (Costar). Each drug concentration is tested in triplicate at half log dilutions. The drug vehicle is dimethyl sulfoxide which is present at a final concentration of 0.32% in all wells.
There are 40,000 MCII cells per well in a final volume of 200 µl complete medium. The stimulated cells are incubated at 37° C for 10 minutes and then LTC4 production is stopped by addition of 25 µl of 180 mM EDTA to chelate extracellular Ca^++.
The amount of LTC4 produced is determined in a competitive enzyme immunoassay (EIA) using commercial reagents purchased from Cayman Chemical Co. In the EIA, free LTC4 in the sample competes with enzyme conjugated LTC4 for binding to immobilized anti-LTC4 antibody. The enzyme conjugated to LTC4 is acetylcholinesterase and Elman's reagent is the substrate for the enzyme. The concentration of LTC4 in the unknown sample is determined using a 4-parameter quadratic analysis of a standard curve generated by measuring the optical density resulting from the addition of known amounts of LTC4 to the EIA.
The positive control on each plate is stimulated MCII cells with dimethyl sulfoxide vehicle alone and the negative control is the same reaction mixture without cells. The background negative control value is subtracted from experimental and positive control values and the data are reported as percent of positive control.

[3] = tested on: production of leukotriene B4 (LTB4); experiment: Inhibition of Eicosanoid Production by Plasma-depleted Blood: LTB4; type: cell-based; details: Homo sapiens, read-out: LTB4
Experimental: as §1

cytosolic 5-lipoxygenase = target: T1, cytosolic 5-lipoxygenase (Homo sapiens, UniProt P09917); experiment: 5-Lipoxygenase (5-LPO) Assay; type: biochemical; details: inhibition of leukotriene B4; human neutrophil 20,000 x g supernatant; 5 minutes at 37°C
T1 construct: Cells are disrupted with sonication and the cytosolic fraction obtained by centrifugation at 20,000 x g; from tissue; host or cells: human peripheral blood neutrophils, 20,000 x g cytosolic supernatant
T1 sequence (P09917 1-674): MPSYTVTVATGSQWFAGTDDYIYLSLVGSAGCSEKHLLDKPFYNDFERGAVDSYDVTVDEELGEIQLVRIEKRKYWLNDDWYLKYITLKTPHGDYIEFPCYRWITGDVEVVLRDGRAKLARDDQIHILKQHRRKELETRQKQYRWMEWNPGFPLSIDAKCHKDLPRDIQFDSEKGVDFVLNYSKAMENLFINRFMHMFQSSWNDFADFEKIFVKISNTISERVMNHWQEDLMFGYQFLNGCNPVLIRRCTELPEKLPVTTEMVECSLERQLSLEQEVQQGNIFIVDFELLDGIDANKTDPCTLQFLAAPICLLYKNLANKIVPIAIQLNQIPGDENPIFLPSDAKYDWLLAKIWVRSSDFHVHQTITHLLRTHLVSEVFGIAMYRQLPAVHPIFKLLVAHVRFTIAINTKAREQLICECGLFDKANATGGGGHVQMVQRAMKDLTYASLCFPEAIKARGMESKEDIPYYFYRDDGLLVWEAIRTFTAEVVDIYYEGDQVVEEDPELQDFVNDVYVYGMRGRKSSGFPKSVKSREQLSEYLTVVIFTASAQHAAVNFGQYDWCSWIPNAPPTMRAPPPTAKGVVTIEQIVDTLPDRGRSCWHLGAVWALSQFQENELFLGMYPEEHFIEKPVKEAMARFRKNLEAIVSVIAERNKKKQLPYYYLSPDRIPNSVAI
Experimental: To determine the effect of compounds on 5-lipoxygenase activity, peripheral blood neutrophils are separated by density centrifugation as described (Marder et al., Prostaglandins Leukot. and Essent. Fatty Acids 46 , 265-270, 1992) and the cytosolic 5-lipoxygenase is prepared from isolated neutrophils according to a modification of Carter et al., (J. Pharmacol. Exp. Ther. 256 , 929-937 (1991)). Briefly, neutrophils are washed twice in buffer (in millimolar: PIPES, 10; BES, 10; and EDTA, 1; pH 6.8) and diluted to 2.5 x 10^7 cells/ml. Cells are disrupted with sonication and the cytosolic fraction obtained by centrifugation at 20,000 x g for 20 min. at 4°C. The resultant supernatant containing the cytosolic 5-lipoxygenase activity is stored frozen at -70°C prior to use. Compounds are evaluated for 5-lipoxygenase inhibitory activity. Varying concentration of compounds in 200 ml aliquots containing 50 ml of human 20,000 x g supernatant in assay buffer (in millimolar: PIPES, 10; BES, 10; EDTA, 1; NaCl, 100; ATP, 1.56; and CaCl2,, 2.5; pH 6.8) containing 3.0 mM AA are used. The reaction proceeds for 5 minutes at 37°C and is terminated upon the addition of 50 ml EDTA (250 mM). The percent inhibition of leukotriene B4 is determined for each concentration of test compound as compared to vehicle (containing no compound) control. […] Leukotriene B4 is determined by EIA.

cPLA2 = target: T2, cPLA2 (Homo sapiens, UniProt P47712); experiment: Chromogenic cPLA2 enzyme assay; type: biochemical; details: C-PLA2 Enzyme
T2 sequence (P47712 1-749): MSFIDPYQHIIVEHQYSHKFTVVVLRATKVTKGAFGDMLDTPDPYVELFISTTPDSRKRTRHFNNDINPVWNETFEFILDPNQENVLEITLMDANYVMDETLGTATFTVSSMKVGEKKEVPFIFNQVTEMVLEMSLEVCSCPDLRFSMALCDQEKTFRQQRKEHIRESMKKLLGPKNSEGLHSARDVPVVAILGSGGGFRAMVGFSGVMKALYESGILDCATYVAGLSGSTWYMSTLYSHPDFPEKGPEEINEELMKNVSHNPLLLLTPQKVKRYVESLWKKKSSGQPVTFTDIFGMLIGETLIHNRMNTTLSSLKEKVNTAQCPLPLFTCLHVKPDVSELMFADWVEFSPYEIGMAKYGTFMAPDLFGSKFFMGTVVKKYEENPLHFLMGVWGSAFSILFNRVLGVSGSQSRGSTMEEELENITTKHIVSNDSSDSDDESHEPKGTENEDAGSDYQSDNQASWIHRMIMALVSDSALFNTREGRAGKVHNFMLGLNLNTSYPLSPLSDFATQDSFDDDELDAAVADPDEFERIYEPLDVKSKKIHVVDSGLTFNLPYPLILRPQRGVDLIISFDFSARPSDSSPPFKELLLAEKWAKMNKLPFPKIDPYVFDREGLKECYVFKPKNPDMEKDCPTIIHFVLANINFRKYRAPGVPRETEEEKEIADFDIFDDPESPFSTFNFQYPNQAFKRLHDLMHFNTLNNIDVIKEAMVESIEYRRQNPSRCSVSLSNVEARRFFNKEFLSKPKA

[4] = Plasma DPLTD Blood, stimulated with FMLP and thrombin
[5] = MCII Mast Cell, IgE-sensitized, stimulated with anti-mouse IgE EM95
[6] = MCII Mast Cell, XTT reduction, 4-12 hours

Structure (SMILES) | IC50 ([2]; Mus musculus, Mast cell) | IC50 [1, 4] | IC50 [2, 5] | IC50 [3, 4] | IC50 (MCII cells; [6]) | further results
O=C(c1ccccc1)c1c(-c2ccc(O)cc2)sc2cc(O)ccc12 [Compound A] | 7100 ± 500 nM |  |  |  |  | IC50 [1]: 4900 nM; IC50 (MCII cells; Mast cell): 300 nM; IC50 [3]: 500 nM
COc1ccc(C(=O)c2c(-c3ccc(OC)cc3)sc3cc(OC)ccc23)cc1 [Compound C] |  | 2000 ± 600 nM | 6700 ± 3000 nM | 1500 ± 400 nM |  | IC50 (cytosolic 5-lipoxygenase): > 10000 nM
O=C(c1ccc(O)cc1)c1c(-c2ccc(O)cc2)sc2cc(O)ccc12 [Compound D] |  |  |  |  |  | IC50 [1]: > 9800 nM; IC50 [3]: 1600 nM
O=C(c1cccc2ccccc12)c1c(-c2ccc(O)cc2)sc2cc(O)ccc12 [Example 2, 6-hydroxyphenyl-2-(p-hydroxyphenyl)-(benzo(B)thien-3-yl)(α-napthyl)methanone] |  | 4900 ± 2400 nM | 500 ± 200 nM | 200 ± 100 nM | > 10000 nM | IC50 (cPLA2): > 200000 nM
Cc1cccc(C(=O)c2c(-c3ccc(O)cc3)sc3cc(O)ccc23)c1 [Example 10] | 1100 ± 200 nM |  |  |  |  | 
CC(C)(C)c1ccc(C(=O)c2c(-c3ccc(O)cc3)sc3cc(O)ccc23)cc1 [Example 8] |  |  | 3500 ± 2100 nM |  |  | 
Cc1ccc(C(=O)c2c(-c3ccc(O)cc3)sc3cc(O)ccc23)cc1 [Example 9] | 800 ± 500 nM |  |  |  |  | 
O=C(c1ccc2ccccc2c1)c1c(-c2ccc(O)cc2)sc2cc(O)ccc12 [Example 3, 6-hydroxyphenyl-2-(p-hydroxyphenyl)-(benzo(B)thien-3-yl)(β-napthyl)methanone] |  | 1400 nM | 3900 ± 1800 nM | 200 nM | > 10000 nM | 
O=C(c1cccc(O)c1)c1c(-c2ccc(O)cc2)sc2cc(O)ccc12 [Example 11] | 2700 nM |  |  |  |  | 
O=C(c1ccc(-c2ccccc2)cc1)c1c(-c2ccc(O)cc2)sc2cc(O)ccc12 [Example 1] |  | 2400 ± 1200 nM | 4400 nM | 2200 ± 400 nM | > 10000 nM | 
CC(c1cc2ccccc2s1)N(O)C(N)=O (stereo not shown) [Zileuton, (I)-N-(1-benzo[B]thien-2-ylethyl)-N-hydroxyurea, reference compound] | 500 ± 300 nM |  |  |  |  | 
Oc1ccc(-c2cc3ccc(O)cc3s2)cc1 [Compound B] |  | 3300 nM | 700 nM | 800 nM | < 10000 nM | IC50 (cPLA2): > 200000 nM
COc1ccc(-c2sc3cc(OC)ccc3c2C(=O)c2cc(OC)c(O)c(OC)c2)cc1 [Example 7A] | 1500 ± 300 nM |  |  |  |  | 
